Laboratory results taken from PubChem BioAssay (NCI).
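Test compounds were applied to cells in 96-well plates for 48 hours at 5 doses. Abbreviation: GI50, concentration required for 50% inhibition of growth. At the TGI there is no net growth.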

Columns and labels:
Test in all cases: NCI tumour cell line growth inhibition, 48 h
786-0 renal = system: 786-0 renal
A498 renal = system: A498 renal
A549 NSCLC = system: A549 NSCLC
ACHN renal = system: ACHN renal
BT-549 breast = system: BT-549 breast
CAKI-1 renal = system: CAKI-1 renal
CCRF-CEM leukemia = system: CCRF-CEM leukemia
COLO 205 colon = system: COLO 205 colon
DU-145 prostate = system: DU-145 prostate
EKVX NSCLC = system: EKVX NSCLC
HCC-2998 colon = system: HCC-2998 colon
HCT-116 colon = system: HCT-116 colon
HCT-15 colon = system: HCT-15 colon
HL-60(TB) leukemia = system: HL-60(TB) leukemia
HOP-62 NSCLC = system: HOP-62 NSCLC
HOP-92 NSCLC = system: HOP-92 NSCLC
HS 578T breast = system: HS 578T breast
HT29 colon = system: HT29 colon
IGROV1 ovarian = system: IGROV1 ovarian
K-562 leukemia = system: K-562 leukemia
KM12 colon = system: KM12 colon
LOX IMVI melanoma = system: LOX IMVI melanoma
M14 melanoma = system: M14 melanoma
MALME-3M melanoma = system: MALME-3M melanoma
MCF7 breast = system: MCF7 breast
MDA-MB-231 breast = system: MDA-MB-231 breast
MDA-MB-435 = system: MDA-MB-435
MOLT-4 leukemia = system: MOLT-4 leukemia
NCI-H226 lung = system: NCI-H226 lung
NCI-H460 lung = system: NCI-H460 lung
NCI-H522 lung = system: NCI-H522 lung
NCI/ADR-RES ovarian = system: NCI/ADR-RES ovarian
OVCAR-4 ovarian = system: OVCAR-4 ovarian
OVCAR-5 ovarian = system: OVCAR-5 ovarian
OVCAR-8 ovarian = system: OVCAR-8 ovarian
PC-3 prostate = system: PC-3 prostate
RPMI-8226 leukemia = system: RPMI-8226 leukemia
RXF 393 renal = system: RXF 393 renal
SF-268 CNS = system: SF-268 CNS
SF-295 CNS = system: SF-295 CNS
SF-539 CNS = system: SF-539 CNS
SK-MEL-2 melanoma = system: SK-MEL-2 melanoma
SK-MEL-28 melanoma = system: SK-MEL-28 melanoma
SK-MEL-5 melanoma = system: SK-MEL-5 melanoma
SK-OV-3 ovarian = system: SK-OV-3 ovarian
SN12C renal = system: SN12C renal
SNB-19 CNS = system: SNB-19 CNS
SNB-75 CNS = system: SNB-75 CNS
SR leukemia = system: SR leukemia
SW-620 colon = system: SW-620 colon
T-47D breast = system: T-47D breast
TK-10 renal = system: TK-10 renal
U251 CNS = system: U251 CNS
UACC-257 melanoma = system: UACC-257 melanoma
UACC-62 melanoma = system: UACC-62 melanoma
UO-31 renal = system: UO-31 renal

Q: `Cc1ccc(C2=Nn3c(nnc3-c3ccccc3)SC2)cc1` was tested. Which GI50 (786-0 renal) did it give?
A: 6.02 µM

Q: And the TGI (786-0 renal)?
A: > 100 µM

Q: What about the GI50 (A498 renal) of the same molecule?
A: 0.445 µM

Q: What about the TGI (A498 renal) of the same molecule?
A: 5.23 µM

Q: And the GI50 (A549 NSCLC)?
A: 0.702 µM

Q: What about the TGI (A549 NSCLC) of the same molecule?
A: > 100 µM

Q: What about the GI50 (ACHN renal) of the same molecule?
A: 3.27 µM

Q: What about the TGI (ACHN renal) of the same molecule?
A: > 100 µM

Q: And the GI50 (BT-549 breast)?
A: 0.385 µM

Q: And the TGI (BT-549 breast)?
A: > 100 µM

Q: And the GI50 (CAKI-1 renal)?
A: 0.75 µM

Q: And the TGI (CAKI-1 renal)?
A: > 100 µM

Q: What about the GI50 (CCRF-CEM leukemia) of the same molecule?
A: 1.66 µM

Q: What about the TGI (CCRF-CEM leukemia) of the same molecule?
A: > 100 µM

Q: And the GI50 (COLO 205 colon)?
A: 0.492 µM

Q: And the TGI (COLO 205 colon)?
A: 24.5 µM

Q: What about the GI50 (DU-145 prostate) of the same molecule?
A: 2.85 µM

Q: What about the TGI (DU-145 prostate) of the same molecule?
A: > 100 µM

Q: What about the GI50 (EKVX NSCLC) of the same molecule?
A: 6.84 µM

Q: And the TGI (EKVX NSCLC)?
A: > 100 µM

Q: And the GI50 (HCC-2998 colon)?
A: 1.04 µM

Q: What about the TGI (HCC-2998 colon) of the same molecule?
A: > 100 µM

Q: What about the GI50 (HCT-116 colon) of the same molecule?
A: 0.428 µM

Q: And the TGI (HCT-116 colon)?
A: > 100 µM

Q: And the GI50 (HCT-15 colon)?
A: 0.416 µM

Q: What about the TGI (HCT-15 colon) of the same molecule?
A: > 100 µM

Q: And the GI50 (HL-60(TB) leukemia)?
A: 0.333 µM

Q: And the TGI (HL-60(TB) leukemia)?
A: > 100 µM

Q: And the GI50 (HOP-62 NSCLC)?
A: 1.23 µM

Q: And the TGI (HOP-62 NSCLC)?
A: > 100 µM

Q: And the GI50 (HOP-92 NSCLC)?
A: 2.58 µM

Q: What about the TGI (HOP-92 NSCLC) of the same molecule?
A: > 100 µM

Q: And the GI50 (HS 578T breast)?
A: 1.2 µM

Q: And the TGI (HS 578T breast)?
A: 25.6 µM

Q: What about the GI50 (HT29 colon) of the same molecule?
A: 0.412 µM

Q: What about the TGI (HT29 colon) of the same molecule?
A: 3.53 µM

Q: What about the GI50 (IGROV1 ovarian) of the same molecule?
A: 0.801 µM

Q: And the TGI (IGROV1 ovarian)?
A: > 100 µM

Q: And the GI50 (K-562 leukemia)?
A: 0.321 µM

Q: What about the TGI (K-562 leukemia) of the same molecule?
A: > 100 µM

Q: What about the GI50 (KM12 colon) of the same molecule?
A: 17.3 µM

Q: What about the TGI (KM12 colon) of the same molecule?
A: > 100 µM

Q: And the GI50 (LOX IMVI melanoma)?
A: 0.838 µM

Q: What about the TGI (LOX IMVI melanoma) of the same molecule?
A: > 100 µM

Q: And the GI50 (M14 melanoma)?
A: 0.435 µM

Q: What about the TGI (M14 melanoma) of the same molecule?
A: > 100 µM

Q: And the GI50 (MALME-3M melanoma)?
A: > 100 µM

Q: And the TGI (MALME-3M melanoma)?
A: > 100 µM

Q: What about the GI50 (MCF7 breast) of the same molecule?
A: 1.6 µM

Q: What about the TGI (MCF7 breast) of the same molecule?
A: > 100 µM

Q: What about the GI50 (MDA-MB-231 breast) of the same molecule?
A: 0.497 µM

Q: What about the TGI (MDA-MB-231 breast) of the same molecule?
A: > 100 µM

Q: What about the GI50 (MDA-MB-435) of the same molecule?
A: 0.196 µM

Q: What about the TGI (MDA-MB-435) of the same molecule?
A: 0.459 µM

Q: And the GI50 (MOLT-4 leukemia)?
A: 0.461 µM

Q: And the TGI (MOLT-4 leukemia)?
A: > 100 µM

Q: And the GI50 (NCI-H226 lung)?
A: 3.45 µM

Q: What about the TGI (NCI-H226 lung) of the same molecule?
A: > 100 µM

Q: And the GI50 (NCI-H460 lung)?
A: 0.389 µM

Q: And the TGI (NCI-H460 lung)?
A: 50 µM

Q: What about the GI50 (NCI-H522 lung) of the same molecule?
A: 0.44 µM

Q: What about the TGI (NCI-H522 lung) of the same molecule?
A: 2.54 µM

Q: And the GI50 (NCI/ADR-RES ovarian)?
A: 0.262 µM

Q: What about the TGI (NCI/ADR-RES ovarian) of the same molecule?
A: 0.881 µM

Q: And the GI50 (OVCAR-4 ovarian)?
A: 6.28 µM

Q: What about the TGI (OVCAR-4 ovarian) of the same molecule?
A: > 100 µM

Q: What about the GI50 (OVCAR-5 ovarian) of the same molecule?
A: 2.57 µM

Q: What about the TGI (OVCAR-5 ovarian) of the same molecule?
A: > 100 µM

Q: And the GI50 (OVCAR-8 ovarian)?
A: 1.78 µM

Q: What about the TGI (OVCAR-8 ovarian) of the same molecule?
A: 84.6 µM

Q: And the GI50 (PC-3 prostate)?
A: 0.815 µM

Q: What about the TGI (PC-3 prostate) of the same molecule?
A: > 100 µM

Q: What about the GI50 (RPMI-8226 leukemia) of the same molecule?
A: 0.895 µM

Q: What about the TGI (RPMI-8226 leukemia) of the same molecule?
A: > 100 µM

Q: And the GI50 (RXF 393 renal)?
A: 1.87 µM

Q: And the TGI (RXF 393 renal)?
A: 19.7 µM

Q: And the GI50 (SF-268 CNS)?
A: 6.37 µM

Q: What about the TGI (SF-268 CNS) of the same molecule?
A: > 100 µM

Q: What about the GI50 (SF-295 CNS) of the same molecule?
A: 0.845 µM

Q: And the TGI (SF-295 CNS)?
A: > 100 µM

Q: What about the GI50 (SF-539 CNS) of the same molecule?
A: 0.925 µM

Q: What about the TGI (SF-539 CNS) of the same molecule?
A: 4.76 µM

Q: And the GI50 (SK-MEL-2 melanoma)?
A: 0.921 µM

Q: What about the TGI (SK-MEL-2 melanoma) of the same molecule?
A: 96.9 µM

Q: What about the GI50 (SK-MEL-28 melanoma) of the same molecule?
A: 27.4 µM

Q: What about the TGI (SK-MEL-28 melanoma) of the same molecule?
A: > 100 µM

Q: And the GI50 (SK-MEL-5 melanoma)?
A: 0.595 µM

Q: And the TGI (SK-MEL-5 melanoma)?
A: > 100 µM

Q: And the GI50 (SK-OV-3 ovarian)?
A: 1.76 µM

Q: And the TGI (SK-OV-3 ovarian)?
A: > 100 µM

Q: What about the GI50 (SN12C renal) of the same molecule?
A: 0.799 µM

Q: What about the TGI (SN12C renal) of the same molecule?
A: > 100 µM

Q: And the GI50 (SNB-19 CNS)?
A: 3.5 µM

Q: What about the TGI (SNB-19 CNS) of the same molecule?
A: > 100 µM

Q: What about the GI50 (SNB-75 CNS) of the same molecule?
A: 0.392 µM

Q: And the TGI (SNB-75 CNS)?
A: 5.27 µM

Q: And the GI50 (SR leukemia)?
A: 0.251 µM

Q: What about the TGI (SR leukemia) of the same molecule?
A: > 100 µM

Q: What about the GI50 (SW-620 colon) of the same molecule?
A: 0.378 µM

Q: And the TGI (SW-620 colon)?
A: > 100 µM

Q: What about the GI50 (T-47D breast) of the same molecule?
A: 0.869 µM

Q: And the TGI (T-47D breast)?
A: > 100 µM

Q: What about the GI50 (TK-10 renal) of the same molecule?
A: 54.1 µM

Q: And the TGI (TK-10 renal)?
A: > 100 µM

Q: And the GI50 (U251 CNS)?
A: 0.528 µM

Q: What about the TGI (U251 CNS) of the same molecule?
A: > 100 µM

Q: What about the GI50 (UACC-257 melanoma) of the same molecule?
A: > 100 µM

Q: And the TGI (UACC-257 melanoma)?
A: > 100 µM

Q: What about the GI50 (UACC-62 melanoma) of the same molecule?
A: 0.536 µM

Q: And the TGI (UACC-62 melanoma)?
A: > 100 µM

Q: And the GI50 (UO-31 renal)?
A: 2.15 µM

Q: What about the TGI (UO-31 renal) of the same molecule?
A: > 100 µM
